Measurements from patent US20050119288A1, “Dosing schedule for a novel anticancer agent” (Pfizer Inc, priority 2003, published 2005).
Like-named read-outs stand apart in the source and are kept apart here. Marks after values point to notes of the source that are not given here.

How the values were obtained:
FRE/erbB2 tumors = assay: FRE/erbB2 tumor growth in athymic mice; assay type: in vivo, murine; details: for % GI (% Growth Inhibition): day 7
Text: (§1) The in vivo anti-tumor activity of the compounds for use in the methods of the present invention can be determined by the amount of inhibition of tumor growth by a test compound relative to a control. The tumor growth inhibitory effects of various compounds can be measured according to the method of Corbett T. H., et al., “Tumor Induction Relationships in Development of Transplantable Cancers of the Colon in Mice for Chemotherapy Assays, with a Note on Carcinogen Structure”, Cancer Res., 35, 2434-2439 (1975) and Corbett T. H., et al., “A Mouse Colon-tumor Model for Experimental Therapy”, Cancer Chemother. Rep. (Part 2)”, 5, 169-186 (1975), with slight modifications. Tumors can be induced in the left flank of mice by subcutaneous (sc) injection of 1-5 million log phase cultured tumor cells suspended in 0.1 ml RPMI 1640 medium. After sufficient time has elapsed for the tumors to become palpable (˜100-150 mm^3 in size/5-6 mm in diameter) the test animals (athymic female mice) are treated with test compound (formulated at a concentration of 10 to 15 mg/ml in 5 Gelucire or 0.5% methyl cellulose) by the intravenous (iv) or oral (po) route of administration once or twice daily for 7 to 29 consecutive days. In order to determine an anti-tumor effect, the tumor is measured in millimeters with a Vernier caliper across two diameters and the tumor size (mm^3) is calculated using the formula: Tumor size (mm^3)=(W×W)/2×L (L=length and W=width), according to the methods of Geran, R. I., et al. “Protocols for Screening Chemical Agents and Natural Products Against Animal Tumors and Other Biological Systems”, Third Edition, Cancer Chemother. Rep., 3, 1-104 (1972). Results are expressed as percent inhibition, according to the formula: Inhibition Growth (%)=[100-{(% Growth of Treated/% Growth of Control)×100}]. The flank site of tumor implantation provides reproducible dose/response effects for a variety of chemotherapeutic agents, and the method of measurement (tumor diameter) is a reliable method for assessing tumor growth rates.
An objective of the pre-clinical investigations was to determine whether the Cmax or area under the curve (AUC) of the test compound is critical for the anti-tumor efficacy. An additional goal was to establish a pharmacokinetics/pharmacodynamics (PK/PD) relationship in the FRE/erbB2 tumor model. The FRE/erbB2 is an engineered murine tumor model, which over-expresses human erbB2 with a trans-membrane mutation.

[1] = Plasma concentration in FRE/erbB2 tumor-bearing mice
Procedure: The test compound was either administered using tail vein infusion or orally.
A 1.15 mg/ml solution of the test compound was infused IV at 550 μl/hr for 2 minute ramped infusions followed by 50 μl/hr for 15 min or 4 hour daily infusions. (Projection was based on Cl of the test compound). Athymic female mice bearing FRE/erbB2 tumors (˜100 mm^3 in size) were treated with vehicle, the test compound orally or the test compound intravenously. […] The study was carried out for 7 days. Plasma and tumor samples were isolated for PK and PD analysis at the termination of study.

[2] = Body weight and tolerability, FRE/erbB2 study
Procedure: A 1.15 mg/ml solution of the test compound was infused IV at 550 μl/hr for 2 minute ramped infusions followed by 50 μl/hr for 15 min or 4 hour daily infusions. […] Athymic female mice bearing FRE/erbB2 tumors (˜100 mm^3 in size) were treated with vehicle, the test compound orally or the test compound intravenously. Body weight changes and tumor measurements were obtained at regular intervals (Days 1, 3, 5, and 7). The study was carried out for 7 days.

MDA-MB-453 tumors = assay: MDA-MB-453 xenograft tumor growth in athymic mice; assay type: in vivo, human; details: PO; for % Growth inhibition: 29 days
Text: as §1
(§2) Study Design: Exponentially growing MDA-MB-453 cells (DMEM/F12 with 10% FBS, and pen/strep [Gibco]) were harvested and inoculated SC (5 million cells/animal) into female athymic mice. MDA-MB-453 tumor bearing mice (˜100 mm^3 in size, N=64) were randomized in 8 groups consisting 8 animals each. Animals were treated with vehicle (PO, QD or BID) or the test compound (PO, QD or BID) as described in Table 6. The tumor measurements and body weight changes were obtained on days 1, 3, 7, 10, 14, 17, 21, 24, and 29. Tumor volume was calculated by the following formula: Tumor volume (mm^3)═(W×W)/2×L (L=length & W=width). Blood samples (˜50 μl) were isolated at 0.5, 1, 2, 4 and 8 hrs after dosing on day 29 for PK-analysis. Tumors were isolated at 0.5 hr post-dosing on day 29 for PD-analysis by ELISA.
Statistical Analysis: ANOVA was conducted on the percentage growth data and planned comparisons were conducted between like-doses. The data were log transformed for the analysis due to the distribution of the values. The Dunnett-Tamahane procedure was used for the multiple comparison analysis.

[3] = Pharmacokinetics in MDA-MB-453 tumor-bearing mice; assay type: in vivo; details: day 29; for Cave0-4 h / AUC(0-t) / Cmax: PO; for AUC(0-t) / Cmax: female, athymic, mouse, blood, po; for AUC(0-t): read-out: AUC0-4 h; for Cmax: read-out: Cmax 0.5 h
Procedure: as §2

COCC(=O)NC/C=C/c1ccc2ncnc(Nc3ccc(Oc4ccc(C)nc4)c(C)c3)c2c1 [Test Compound, E-2-Methoxy-N-(3-{4-(3-methyl-4-(6-methyl-pyridin-3-yloxy)-phenylamino)-quinazolin-6-yl}-allyl)-acetamide]
Tumor vol. Day 1 (Mean ± SE) (FRE/erbB2 tumors; 1.4 mg/kg IV, QD, 15 min/day): 121 ± 24 mm^3 | Tumor vol. Day 7 (Mean ± SE) (FRE/erbB2 tumors; 1.4 mg/kg IV, QD, 15 min/day): 749 ± 178 mm^3 | % GI (% Growth Inhibition) (FRE/erbB2 tumors; 1.4 mg/kg IV, QD, 15 min/day): 34% | % GI (% Growth Inhibition) (FRE/erbB2 tumors; 1.4 mg/kg IV, QD, 15 min/day, listed as test compound): approximately 34% | Tumor vol. Day 1 (Mean ± SE) (FRE/erbB2 tumors; 10.7 mg/kg IV, 4 hr/day): 117 ± 23 mm^3 | Tumor vol. Day 7 (Mean ± SE) (FRE/erbB2 tumors; 10.7 mg/kg IV, 4 hr/day): 273 ± 81 mm^3 | % GI (% Growth Inhibition) (FRE/erbB2 tumors; 10.7 mg/kg IV, 4 hr/day): 76% | Tumor vol. Day 1 (Mean ± SE) (FRE/erbB2 tumors; 25 mg/kg PO, QD): 113 ± 18 mm^3 | Tumor vol. Day 7 (Mean ± SE) (FRE/erbB2 tumors; 25 mg/kg PO, QD): 531 ± 101 mm^3 | % GI (% Growth Inhibition) (FRE/erbB2 tumors; 25 mg/kg PO, QD, compare to Vehicle (IV) group): 54* % | % GI (% Growth Inhibition) (FRE/erbB2 tumors; 25 mg/kg PO, QD, compare to Vehicle (IV) group, listed as test compound): Approximately 54% | FRE tumor volume in treated mice relative to control (FRE/erbB2 tumors; 25 mg/kg orally once a day, seven days of treatment (FIG. 1)): about half of the control | tumor volume increase relative to vehicle control (FRE/erbB2 tumors; about 10 mg/kg IV for seven days over a four hour period each day (FIG. 2)): less than 24% | tumor volume increase relative to vehicle control (FRE/erbB2 tumors; rapid infusion of about 1.4 mg/kg daily over about 15 min/day (FIG. 2)): less than 66% | Plasma Concentration (Mean ± SE) ([1]; 10.7 mg/kg IV, 4 hr/day): 473 ± 141 ng/mL | Plasma Concentration (Mean ± SE) ([1]; 10.7 mg/kg IV, 4 hr/day, listed as test compound): ~500 ng/mL | Plasma Concentration (Mean ± SE) ([1]; 25 mg/kg PO, QD, 0.5 h post-dosing on day 7): 1460 ± 170 ng/mL | average body weight Day 1 ([2]; 1.4 mg/kg IV, QD, 15 min/day): 23 g | average body weight Day 7 ([2]; 1.4 mg/kg IV, QD, 15 min/day): 24 g | average body weight Day 1 ([2]; 10.7 mg/kg IV, 4 hr/day): 22 g | average body weight Day 7 ([2]; 10.7 mg/kg IV, 4 hr/day): 22 g | average body weight Day 1 ([2]; 25 mg/kg PO, QD): 21 g | average body weight Day 7 ([2]; 25 mg/kg PO, QD): 22 g | body weight loss or mortality ([2]; FRE/erbB2 study, 7 days): did not cause any body weight loss or mortality | % Growth inhibition (MDA-MB-453 tumors; BID 25 mg/kg (Total Daily Dose = 50 mg/kg)): 19% | Tumor volume Day 1 (Mean ± SE) (MDA-MB-453 tumors; BID 25 mg/kg): 107 ± 4 mm^3 | Tumor volume Day 29 (Mean ± SE) (MDA-MB-453 tumors; BID 25 mg/kg): 252 ± 24 mm^3 | % Growth inhibition (MDA-MB-453 tumors; BID 50 mg/kg (Total Daily Dose = 100 mg/kg)): 66% | Tumor volume Day 1 (Mean ± SE) (MDA-MB-453 tumors; BID 50 mg/kg): 107 ± 4 mm^3 | Tumor volume Day 29 (Mean ± SE) (MDA-MB-453 tumors; BID 50 mg/kg): 164 ± 13 mm^3 | % Growth inhibition (MDA-MB-453 tumors; BID 100 mg/kg (Total Daily Dose = 200 mg/kg)): 83% | Tumor volume Day 1 (Mean ± SE) (MDA-MB-453 tumors; BID 100 mg/kg): 107 ± 4 mm^3 | Tumor volume Day 29 (Mean ± SE) (MDA-MB-453 tumors; BID 100 mg/kg): 137 ± 6 mm^3 | % Growth inhibition (MDA-MB-453 tumors; QD 50 mg/kg): 38% | Tumor volume Day 1 (Mean ± SE) (MDA-MB-453 tumors; QD 50 mg/kg): 107 ± 4 mm^3 | Tumor volume Day 29 (Mean ± SE) (MDA-MB-453 tumors; QD 50 mg/kg): 213 ± 19 mm^3 | % Growth inhibition (MDA-MB-453 tumors; QD 100 mg/kg): 63% | Tumor volume Day 1 (Mean ± SE) (MDA-MB-453 tumors; QD 100 mg/kg): 107 ± 4 mm^3 | Tumor volume Day 29 (Mean ± SE) (MDA-MB-453 tumors; QD 100 mg/kg): 175 ± 14 mm^3 | % Growth inhibition (MDA-MB-453 tumors; QD 200 mg/kg): 100% | Tumor volume Day 1 (Mean ± SE) (MDA-MB-453 tumors; QD 200 mg/kg): 107 ± 4 mm^3 | Tumor volume Day 29 (Mean ± SE) (MDA-MB-453 tumors; QD 200 mg/kg): 108 ± 9 mm^3 | Cave0-4 h ([3]; 25 mg/kg, BID): 215 ng/mL | Cave0-4 h ([3]; 50 mg/kg, BID): 509 ng/mL | Cave0-4 h ([3]; 50 mg/kg, QD): 591 ng/mL | Cave0-4 h ([3]; 100 mg/kg, BID): 1710 ng/mL | Cave0-4 h ([3]; 100 mg/kg, QD): 3120 ng/mL | Cave0-4 h ([3]; 200 mg/kg, QD): 6510 ng/mL | Cave0-4 h, 200 mg/kg QD group relative to 100 mg/kg BID group [3]: 3.8 fold | Cmax, 100 mg/kg QD group relative to 50 mg/kg QD and 50 mg/kg BID groups [3]: approximately 4 fold | Cmax, 200 mg/kg QD group relative to 100 mg/kg BID group [3]: 2.4 fold | AUC(0-t) ([3]; 25 mg/kg, BID): 857 ng·h/mL | Cmax ([3]; 25 mg/kg, BID): 952 ng/mL | AUC(0-t) ([3]; 50 mg/kg, BID): 2040 ng·h/mL | Cmax ([3]; 50 mg/kg, BID): 2390 ng/mL | AUC(0-t) ([3]; 50 mg/kg, QD): 2360 ng·h/mL | Cmax ([3]; 50 mg/kg, QD): 2760 ng/mL | AUC(0-t) ([3]; 100 mg/kg, BID): 6840 ng·h/mL | Cmax ([3]; 100 mg/kg, BID): 6870 ng/mL | AUC(0-t) ([3]; 100 mg/kg, QD): 12500 ng·h/mL | Cmax ([3]; 100 mg/kg, QD): 9770 ng/mL | AUC(0-t) ([3]; 200 mg/kg, QD): 26100 ng·h/mL | Cmax ([3]; 200 mg/kg, QD): 16700 ng/mL
